Laboratory results from patent US20130030049A1, “METHODS OF TREATING DERMATOLOGICAL DISORDERS OR CONDITIONS” (Dermira (Canada), Inc., priority 2006, published 2013).
Where two headings read alike, the source gives them in different places.

Columns and labels:
[1] = test system: SZ95 sebocytes; test: Inhibition of lipid synthesis in AA-stimulated SZ95 sebocytes (Nile Red staining); type: cell-based, human
Description: (§1) The immortalized human sebocyte cell line, SZ95, was maintained in culture as described in Zouboulis, C. C. et al., J. Invest. Dermatol. (1999), Vol. 113, pp. 1011-1020. Lipid synthesis was stimulated by treating SZ95 cells with arachidonic acid (AA). For measurement of lipid production and lipid inhibition studies, test compounds were dissolved in dimethylsulfoxide (DMSO) and added at the desired concentration in 96-well microtiter plates. The cells were then cultured for up to 72 hours before the plates were washed 3 times with PBS and a final volume of 200 μL PBS/well was added. To stain cell neutral lipids, 5 μL of Nile Red solution (0.2 mg/mL dissolved in DMSO) was added to each well and incubated for a minimum of 60 minutes. Plate fluorescence was then quantified using a fluorometric plate reader (excitation wavelength: 490 nm; emission wavelength: 590 nm). Inhibition of lipid levels by the test compound was expressed as the % reduction of the fluorescence of AA-stimulated cells in the presence of the test compound relative to the values obtained for the unstimulated control cells. Cell viability was measured by utilizing the conversion of a tetrazolium reagent (MTS) to a colored-formazan product by live cells. For these assays, the test compound was dissolved in dimethylsulfoxide (DMSO) and added at the desired concentration to cells seeded into 96-well plates. The cells were cultured for 48 hours in the presence of the test compound before the plates were washed 3 times with PBS. A final volume of 100 μL of culture medium per well was added. Twenty μL of MTS solution (0.2 mg/mL in sterile PBS) was added to each well and incubated for a minimum of 60 minutes until the desired optical density was reached. The color development of the wells was measured using a plate reader at an absorbance of […]. Effect on cell viability by the test compound was expressed as the % reduction of the absorbance for AA-stimulated cells in the presence of the test compound relative to the values obtained for the untreated control cells.

[2] = test system: SZ95 sebocytes; test: SZ95 sebocyte viability (MTS assay); type: cell-based, human; details: AA-stimulated SZ95 cells, FIG. 2B
Description: as §1, with “To stain cell neutral lipids, 5 μL of Nile Red solution (0.2 mg/mL dissolved in DMSO) was added to each well and incubated for a minimum of 60 minutes.” left out, “For these assays, the test compound was dissolved in dimethylsulfoxide (DMSO) and added at the desired concentration to cells seeded into 96-well plates. The cells were cultured for 48 hours in the presence of the test compound before the plates were washed 3 times with PBS. A final volume of 100 μL of culture medium per well was added. Twenty μL of MTS solution (0.2 mg/mL in sterile PBS) was added to each well and incubated for a minimum of 60 minutes until the desired optical density was reached.” left out

[3] = test system: LNCaP cells; test: Lipid accumulation in DHT-stimulated LNCaP cells (Nile Red flow cytometry, Oil Red O); type: cell-based, human
Description: The human prostate LNCaP adenocarcinoma cell line was obtained from American Type Culture Collection. Cells were maintained in RPMI 1640 medium containing 10% fetal calf serum (FCS), 4 mM Glutamax, 1 mM sodium pyruvate, 1 mM HEPES, penicillin (100 U/mL) and streptomycin (100 μg/mL). For experiments, approximately 10,000 cells/well were plated in 6-well tissue culture plates in RPMI 1640 10% FBS for 72 hours. To minimize potential serum androgen effects, medium containing 5% charcoal/dextran-stripped FCS was added for 72 hours. Lipid synthesis was then stimulated by addition of the androgen dihydrotestosterone (DHT) at 50 nM. TOFA was solubilized in DMSO and added at various concentrations in RPMI 1640 containing 5% charcoal/dextran-treated. Cells were incubated in the presence of these factors for 96 hours at 37° C. Lipid accumulation was subsequently quantified by Nile Red staining and flow cytometric analysis. The flow cytometer laser excitation was set at 488 nm and Nile Red fluorescence collected through a 585 nm band pass filter. A total of 10,000 events were collected per sample. […] Cell Nile Red fluorescence was also visualized through a fluorescence microscope.
Cellular lipid expression was also determined using Oil Red O staining. […] Lipid accumulation was visualized by fluorescence microscopy.

[4] = test system: 3T3-L1 cells; test: 3T3-L1 adipocyte differentiation and lipid accumulation (Oil Red O); type: cell-based; details: mouse 3T3-L1 adipocytes, FIGS. 8-10
Description: Mouse 3T3-L1 preadipocytes (American Type Culture Collection) were passaged and maintained in Dulbecco's modified Eagles Medium (DMEM) supplemented with 10% fetal calf serum (FCS), 1 mM sodium pyruvate, penicillin (100 U/ml)/streptomycin (100 μg/ml) and 4 mM Glutamax (Gibco/Life Technologies). To initiate adipocyte differentiation, 3T3-L1 cells were plated at confluency into culture plates or dishes and grown in supplemented DMEM for two days post-confluency. Initiation medium consisted of DMEM with 0.5 mM 3-isobutyl-1-methylxanthine, 1 μM dexamethasone and human insulin at 10 μg/ml. Progression medium contained insulin (10 μg/ml) which replaced the initiation medium after 48-72 hours. Cellular lipid was imaged by Oil Red O staining as described in Example 2 for LNCaP cells.

[5] = test system: PBMC; test: Viability of activated PBMC (MTS assay); type: cell-based, human
Description: (§2) As described herein, the inhibitory effect of TOFA on fatty acid synthesis is well known. However, the potential influence of TOFA on cellular production of inflammatory mediators or immune cell proliferation is unreported. To address this question, PBMC were isolated from different donors by density gradient centrifugation. Different amounts of TOFA were added to PBMC cultures in the presence of two different stimuli sets. One activating stimulus was phytohemagglutinin (PHA), a plant-derived mitogen that stimulates proliferation and cytokine synthesis by T lymphocytes. These cell preparations were also activated using a combination of interferon-γ (IFN-γ) and lipopolysaccharide (LPS) to stimulate cytokine production by the monocyte fraction within PBMC preparations. Following a 48 hour culture period, cell supernatants were obtained for simultaneous determination of cytokine levels using a flow cytometry-based quantification method. […] Cell viability was assessed using a colorimetric assay based on the conversion of 3-(4,5-dimethylthiazol-2-yl)-5-(3-carboxymethoxyphenyl)-2-(4-sulfophenyl)-2H-tetrazolium, inner salt (MTS) into a soluble formazan product by mitochondrial dehydrogenase of viable cells. Cell proliferation was determined by adding ^3H-thymidine to the cultures and determining its level of incorporation into DNA using scintillation counting.

[6] = test system: IL-1β; test: Supernatant IL-1β level of activated PBMC (flow cytometry-based); type: cell-based; details: Homo sapiens; PBMC stimulated with IFN-γ plus LPS, 10% FBS, 48 hours; read-out: IL-1β supernatant level IC50 (estimated)
Description: as §2

[7] = test system: IL-6; test: Supernatant IL-6 level of activated PBMC (flow cytometry-based); type: cell-based; details: Homo sapiens; PBMC stimulated with IFN-γ plus LPS, 10% FBS, 48 hours; read-out: IL-6 supernatant level IC50 (estimated)
Description: as §2

[8] = test system: IL-8; test: Supernatant IL-8 level of activated PBMC (flow cytometry-based); type: cell-based; details: Homo sapiens; PBMC stimulated with IFN-γ plus LPS, 10% FBS, 48 hours; read-out: IL-8 supernatant level IC50 (estimated)
Description: as §2

[9] = test system: TNF-α; test: Supernatant TNF-α level of activated PBMC (flow cytometry-based); type: cell-based; details: Homo sapiens, 48 h, PBMC stimulated with IFN-γ plus LPS, 10% FBS, read-out: TNF-α supernatant level IC50 (estimated)
Description: as §2

[10] = oral, moderate to severe acne patients, at 12 weeks; cited from earlier work

Question: With CC1=C(/C=C/C(C)=C/C=C/C(C)=C\C(=O)O)C(C)(C)CCC1 [13-cis retinoic acid, 13-cis-retinoic acid, reference compound] as the compound, how does the IC50 ([1]; SZ95 cells, short term cultures, read-out: IC50 against lipid synthesis) read?
Answer: Its IC50 is ~40 µM.

Question: Which “inhibition of lipid synthesis observed by fluorescence microscopy” value ([1]; AA-stimulated SZ95 cells, FIG. 1) does the source give for CCCCCCCCCCCCCCOc1ccc(C(=O)O)o1 [TOFA, 5-(tetradecyloxy)-2-furancarboxylic acid] here?
Answer: Its value is “dose-dependent inhibition of lipid synthesis”.

Question: What about the IC50 ([1]; Homo sapiens, AA-stimulated SZ95 cells, FIG. 2A, read-out: estimated IC50 upon lipid synthesis (nile red fluorescence intensity)) of the same compound?
Answer: The IC50 was ~3 µM.

Question: What about the “TOFA concentration with viability loss” value [2] of the same compound?
Answer: Its value is “greater than 50 μM”.

Question: What about the “lipid levels by Oil Red O staining and fluorescence microscopy” value ([3]; FIG. 11) of the same compound?
Answer: The value was “dose dependent reduction in lipid levels”.

Question: And the “reduction of lipid levels (flow cytometry/fluorescence)” value ([3]; TOFA at 25 μM, FIG. 12)?
Answer: Its value is > 50%.

Question: And the “effect on cellular differentiation and lipid accumulation” value [4]?
Answer: Its value is “dose-dependent effects on cellular differentiation and lipid accumulation”.

Question: And the IC50 ([5]; Homo sapiens, PBMC stimulated with PHA (2 μg/mL), 10% FBS, 48 hours, one row per experiment (donor))?
Answer: The IC50 was > 90 µM.

Question: And the “effect on the viability of PBMC” value ([5]; PBMC stimulated with PHA or IFN-γ plus LPS)?
Answer: Its value is “no effect on the viability”.

Question: And the IC50 [6]?
Answer: Its IC50 is > 90 µM.

Question: What about the IC50 [7] of the same compound?
Answer: Its IC50 is > 90 µM.

Question: What about the IC50 [8] of the same compound?
Answer: The IC50 was > 90 µM.

Question: And the IC50 [9]?
Answer: The IC50 was > 90 µM.

Question: Which results are given for CC(c1cc2ccccc2s1)N(O)C(N)=O (stereo not shown) [Zileuton]?
Answer: reduction in inflammatory lesions [10]: 71%; reduction of sebum lipids [10]: 65%

Question: Which “increase of SZ95 sebocyte lipid levels” value ([1]; 96-well microtiter plate format) does the source give for CCCCC/C=C\C/C=C\C/C=C\C/C=C\CCCC(=O)O [arachidonic acid (AA), arachidonic acid, reference compound] here?
Answer: The value was “approximately 5 fold”.
